From patent publication EP0377642B1, “HERBICIDES FOR WEED CONTROL IN RICE” (E.I. DU PONT DE NEMOURS AND COMPANY, priority 1987, dated 1989)
Where two headings read alike, the source gives them in different places.

Tests used:
Assay type in all cases: in vivo
Cuperus difformis = experiment: Herbicidal efficacy with Bensulfuron methyl and 2,4-D in Thailand (Table 19); conditions: 4 GAI/HA; 13 days after treatment
Description: (§1) Methyl 2-[[[[(4-methoxy-6-methyl-1,3,5-triazin-2-yl)amino]carbonyl]amino]sulfonyl]benzoate (Compound 1) and mixtures thereof with other compounds were applied as a spray (using a hand sprayer) to rice (either transplanted or direct seeded) in several rice growing areas in Southeast Asia and in the U.S. Tables 1-28 contain the results of these tests and clearly exemplify the utility of this invention. The details of each application are included in the appropriate table. [drawing 2]

Sphenoclea zeylanica [1] = experiment: as above; conditions: 4 GAI/HA; 13 days after treatment
Description: as §1

rice [2] = experiment: as above; conditions: 4 GAI/HA; 13 days after treatment
Description: as §1

[3] = system: Barnyardgrass (Echinochloa crus-galli); experiment: Field test applied 7 DAS in direct seeded rice in the Philippines, cover (Table 14); conditions: 47 DAA
Description: as §1

SEDGE = experiment: as above; conditions: 47 DAA
Description: as §1

Sphenoclea zeylanica [4] = experiment: Herbicidal efficacy with Bensulfuron methyl and 2,4-D in Thailand (Table 18); conditions: 4 GAI/HA; 13 days after treatment
Description: as §1

rice [5] = experiment: as above; conditions: 4 GAI/HA; 13 days after treatment
Description: as §1

Cyperus difformis [6] = experiment: as above; conditions: 4 GAI/HA; 13 days after treatment
Description: as §1

WEED [7] = experiment: Effects in combination with Bensulfuron Methyl and Thiobencarb or Pretilachlor on weed control (Table 25); conditions: rate 2 g ai/ha, scale 0 to 10, treated at 2.0 leaf stage, evaluated four weeks later
Description: as §1

Jussiaea linifolia = experiment: Field test applied at 18 DAS in direct seeded rice (Table 12); conditions: 4 GM.A.I./HA, scale 0-10
Description: as §1

Sphenoclea zeylanica [8] = experiment: as above; conditions: 4 GM.A.I./HA, scale 0-10
Description: as §1

Cyperus iria [9] = experiment: as above; conditions: 4 GM.A.I./HA, scale 0-10
Description: as §1

FIMBRISTYLIS MILIACEA [10] = experiment: as above; conditions: 4 GM.A.I./HA, scale 0-10
Description: as §1

Sphenoclea zeylanica [11] = experiment: Field test with Bensulfuron methyl in direct seeded rice (Table 10); conditions: 10 = complete control
Description: as §1

Cyperus iria [12] = experiment: as above; conditions: 10 = complete control
Description: as §1

Marsilea crenata = experiment: as above; conditions: 10 = complete control
Description: as §1

direct seeded rice [13] = conditions: 4 GM.A.I./HA; for PHYTO at 2WAA: scale 0-10
Description: as §1

rice [14] = experiment: Effects in combination with Bensulfuron Methyl and Thiobencarb or Pretilachlor on rice growth (Table 23); conditions: rate 2 g ai/ha; var. Koshihikari, applied 7 days after transplanting, rated 21 days after application
Description: as §1

direct seeded rice [15] = experiment: Field test applied 7 DAS in direct seeded rice in the Philippines, phytotoxicity (Table 14); conditions: 30 DAA
Description: as §1

WEED [16] = experiment: Field test applied 7 DAS in direct seeded rice in the Philippines, weed cover (Table 14); conditions: 47 DAA
Description: as §1

WEED [17] = experiment: Effects in combination with Bensulfuron Methyl and Thiobencarb or Pretilachlor on weed control (Table 24); conditions: rate 2 g ai/ha, scale 0 to 10, treated at 1.0 leaf stage, evaluated four weeks later
Description: as §1

Sphenoclea zeylanica [18] = experiment: Field test applied at 25 DAS in direct seeded rice (Table 13); conditions: 4 GM.A.I./HA, scale 0-10
Description: as §1

Cyperus iria [19] = experiment: as above; conditions: 4 GM.A.I./HA, scale 0-10
Description: as §1

Cuperus iria = experiment: Herbicidal efficacy with Bensulfuron methyl and 2,4-D in Thailand (Table 20); conditions: 4 GAI/HA; 14 days after treatment
Description: as §1

Sphenoclea zeylanica [20] = experiment: as above; conditions: 4 GAI/HA; 14 days after treatment
Description: as §1

rice [21] = experiment: as above; conditions: 4 GAI/HA; 14 days after treatment
Description: as §1

FIMBRISTYLIS MILIACEA [22] = experiment: as above; conditions: 4 GAI/HA; 14 days after treatment
Description: as §1

Ludwigia linifolia = experiment: as above; conditions: 4 GAI/HA; 14 days after treatment
Description: as §1

direct seeded rice [23] = experiment: Field test with Bensulfuron methyl in direct seeded rice, yield (Table 10)
Description: as §1

Sphenoclea zeylanica [24] = experiment: Field test applied at 7 DAS in direct seeded rice (Table 11); conditions: 4 GM.A.I./HA, scale 0-10
Description: as §1

Cyperus difformis [25] = experiment: as above; conditions: 4 GM.A.I./HA, scale 0-10
Description: as §1

## COC(=O)c1ccccc1S(=O)(=O)NC(=O)Nc1nc(C)nc(OC)n1 [Compound 1, Methyl 2-[[[[(4-methoxy-6-methyl-1,3,5-triazin-2-yl)amino]carbonyl]amino]sulfonyl]benzoate]
Cuperus difformis
  % CONTROL OR INJURY CD: 100%
Sphenoclea zeylanica [1]
  % CONTROL OR INJURY SZ: 93%
Rice [2]
  % CONTROL OR INJURY RICE: 0%
[3]; 1.65 G AI/HA
  % BYG COVER: 26%
[3]; 2.40 G AI/HA
  % BYG COVER: 35%
[3]; 3.33 G AI/HA
  % BYG COVER: 35%
SEDGE; 1.65 G AI/HA
  % SEDGE COVER: 5%
SEDGE; 2.40 G AI/HA
  % SEDGE COVER: 6%
SEDGE; 3.33 G AI/HA
  % SEDGE COVER: 4%
Sphenoclea zeylanica [4]
  % CONTROL OR INJURY SZ: 98%
Rice [5]
  % CONTROL OR INJURY RICE: 0%
Cyperus difformis [6]
  % CONTROL OR INJURY CD: 100%
WEED [7]; Cyperus difformis
  WEED CONTROL RATINGS CD: 7
WEED [7]; Cyperus serotinus
  WEED CONTROL RATINGS CS: 0
WEED [7]; Echinochloa oryzicola
  WEED CONTROL RATINGS EO: 1
WEED [7]; Lindernia pyxidaria
  WEED CONTROL RATINGS BL: 10
WEED [7]; Monochoria vaginalis
  WEED CONTROL RATINGS MV: 10
WEED [7]; Sagittaria pygmaea
  WEED CONTROL RATINGS SP: 8
WEED [7]; Scirpus juncoides
  WEED CONTROL RATINGS SJ: 6
Jussiaea linifolia
  WEED CONTROL at 6 WAA JL: 7.67
Sphenoclea zeylanica [8]
  WEED CONTROL at 6 WAA SZ: 6.33
Cyperus iria [9]
  WEED CONTROL at 6 WAA CI: 0.33
FIMBRISTYLIS MILIACEA [10]
  WEED CONTROL at 6 WAA FM: 0
Sphenoclea zeylanica [11]; 2 GAI/HA
  WEEDS CONTROL at 4 WAA SZ: 7.93
Sphenoclea zeylanica [11]; 4 GAI/HA
  WEEDS CONTROL at 4 WAA SZ: 9.33
Cyperus iria [12]; 2 GAI/HA
  WEEDS CONTROL at 4 WAA CI: 0
Cyperus iria [12]; 4 GAI/HA
  WEEDS CONTROL at 4 WAA CI: 0
Marsilea crenata; 2 GAI/HA
  WEEDS CONTROL at 4 WAA MC: 10
Marsilea crenata; 4 GAI/HA
  WEEDS CONTROL at 4 WAA MC: 10
Direct seeded rice [13]; 7 DAS
  YIELD: 4.90 TONS/HA
  PHYTO at 2WAA: 0
Direct seeded rice [13]; 18 DAS
  YIELD: 4.65 TONS/HA
  PHYTO at 2WAA: 0
Direct seeded rice [13]; 25 DAS
  YIELD: 5.04 TONS/HA
  PHYTO at 2WAA: 0
Rice [14]
  CROP TOLERANCE DW (Dry weight relative to untreated check): 73%
  CROP TOLERANCE PH (Plant height relative to untreated check): 86%
  CROP TOLERANCE VA (Visual crop injury): 3%
Direct seeded rice [15]; 1.65 G AI/HA
  PHYTO (1-9): 2
Direct seeded rice [15]; 2.40 G AI/HA
  PHYTO (1-9): 2.3
Direct seeded rice [15]; 3.33 G AI/HA
  PHYTO (1-9): 3.3
WEED [16]; 1.65 G AI/HA
  % WEED COVER: 29%
WEED [16]; 2.40 G AI/HA
  % WEED COVER: 35%
WEED [16]; 3.33 G AI/HA
  % WEED COVER: 35%
WEED [17]; Cyperus difformis
  WEED CONTROL RATINGS CD: 10
WEED [17]; Cyperus serotinus
  WEED CONTROL RATINGS CS: 1
WEED [17]; Echinochloa oryzicola
  WEED CONTROL RATINGS EO: 1
WEED [17]; Lindernia pyxidaria
  WEED CONTROL RATINGS BL: 10
WEED [17]; Monochoria vaginalis
  WEED CONTROL RATINGS MV: 10
WEED [17]; Sagittaria pygmaea
  WEED CONTROL RATINGS SP: 8
WEED [17]; Scirpus juncoides
  WEED CONTROL RATINGS SJ: 7
Sphenoclea zeylanica [18]
  WEED CONTROL at 6 WAA SZ: 9.53
Cyperus iria [19]
  WEED CONTROL at 6 WAA CI: 0
Cuperus iria
  % CONTROL OR INJURY CI: 0%
Sphenoclea zeylanica [20]
  % CONTROL OR INJURY SZ: 60%
Rice [21]
  % CONTROL OR INJURY RICE: 0%
FIMBRISTYLIS MILIACEA [22]
  % CONTROL OR INJURY FM: 0%
Ludwigia linifolia
  % CONTROL OR INJURY LL: 67%
Direct seeded rice [23]; 2 GAI/HA
  YIELD: 3.62 TONS/HA
Direct seeded rice [23]; 4 GAI/HA
  YIELD: 3.62 TONS/HA
Sphenoclea zeylanica [24]
  WEED CONTROL at 6 WAA SZ: 10
Cyperus difformis [25]
  WEED CONTROL at 6 WAA CD: 10
